The values below come from patent US20260042753A1 (Merck Patent GmbH, priority 2019, published 2026).

For one test, the target named is c-Kit(V654A) (Homo sapiens, UniProt P10721, V654A). Put plainly: c-Kit(V654A) assay. It counts as biochemical. Summed up: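 Radiometric filter-binding read-out: after 3% phosphoric acid stop, peptide-incorporated 33P on filtermat scintillation-counted. Enzyme: human c-Kit V654A, residues 544–end, N-terminal GST fusion.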
For test [1], the target named is mutant cKIT (560-576 and V654A) in GIST430/654 cell line (Homo sapiens (Human), UniProt P10721, DEL560-576/V654A). Put plainly: Cellular testing of cKIT mutant inhibitors: phospho-Y307-cKIT Luminex assay in GIST430/654 cells. It counts as cell-based. The conditions noted are these: read-out: GIST 430/654 IC50. Summed up: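 GIST430/654 cells carrying constitutively active cKIT (Δ560-576/V654A) were grown with 100 nM imatinib, then treated with serially diluted compound for 45 min. Lysates were captured on anti-total-cKIT Luminex beads overnight at 4 °C and probed for phospho-Y307-cKIT. IC50 was fitted from percent of 0.3% DMSO control.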
Chain of mutant cKIT (560-576 and V654A) in GIST430/654 cell line (P10721 other isoform, or with tags, fused parts or gaps V654A/del 1-25/del 560-576 limits assumed): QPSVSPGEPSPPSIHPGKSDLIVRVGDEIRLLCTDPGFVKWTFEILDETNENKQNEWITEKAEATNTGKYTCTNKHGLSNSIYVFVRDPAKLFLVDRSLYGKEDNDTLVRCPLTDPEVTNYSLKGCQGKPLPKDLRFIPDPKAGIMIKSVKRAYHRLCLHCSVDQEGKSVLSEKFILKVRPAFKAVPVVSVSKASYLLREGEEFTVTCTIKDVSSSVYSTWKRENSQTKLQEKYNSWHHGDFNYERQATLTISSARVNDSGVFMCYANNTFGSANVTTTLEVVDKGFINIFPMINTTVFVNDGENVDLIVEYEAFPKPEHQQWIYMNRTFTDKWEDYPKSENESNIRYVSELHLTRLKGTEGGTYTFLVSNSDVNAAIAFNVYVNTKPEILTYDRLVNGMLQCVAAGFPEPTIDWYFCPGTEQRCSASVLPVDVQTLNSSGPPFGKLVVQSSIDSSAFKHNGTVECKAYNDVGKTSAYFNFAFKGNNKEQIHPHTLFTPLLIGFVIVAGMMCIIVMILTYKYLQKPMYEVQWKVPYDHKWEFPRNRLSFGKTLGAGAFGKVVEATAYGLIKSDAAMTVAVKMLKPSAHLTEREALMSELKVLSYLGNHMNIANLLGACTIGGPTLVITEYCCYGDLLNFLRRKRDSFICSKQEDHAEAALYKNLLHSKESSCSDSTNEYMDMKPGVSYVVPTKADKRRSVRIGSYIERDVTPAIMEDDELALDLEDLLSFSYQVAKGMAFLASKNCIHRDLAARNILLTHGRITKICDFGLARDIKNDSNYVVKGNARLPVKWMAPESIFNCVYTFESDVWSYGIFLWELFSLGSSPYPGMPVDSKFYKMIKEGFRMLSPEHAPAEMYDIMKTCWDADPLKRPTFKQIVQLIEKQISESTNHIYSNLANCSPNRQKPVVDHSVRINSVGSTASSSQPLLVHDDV

Setting [2] is: Table 1, cKIT autophosphorylation, compounds 45 min.
[3] abbreviates: Table 2, isoxazole derivatives presently described.
Setting [4] is: Table 2, corresponding triazole derivatives.

Counter-ions that a name gives are not always drawn. Like-named read-outs stand apart in the source and are kept apart here.

For the compound `COCCOc1cc2[nH]nc(-c3cc(-c4ccc(S(C)(=N)=O)cc4)no3)c2cc1F` (stereo not drawn) [A226, (4-{5-[5-fluoro-6-(2-methoxyethoxy)-1H-indazol-3-yl]-1,2-oxazol-3-yl}phenyl)(imino)methyl-lambda6-sulfanone], the IC50 against c-Kit(V654A) (Table 1, 200 μM ATP) was 2 nM; in test [1] (setting [2]), 150 nM.
In the same order, the values of `COCCOc1cc2[nH]nc(-c3cc(-c4ccc(S(=O)(=O)N5CCOCC5)cc4)no3)c2cc1F` [A227, 5-fluoro-6-(2-methoxyethoxy)-3-{3-[4-(morpholine-4-sulfonyl)phenyl]-1,2-oxazol-5-yl}-1H-indazole] are 3 nM and 170 nM.
In the same order, the values of `COCCOc1cc2[nH]nc(-c3cc(-c4ccc(C(=O)N5CCN(C(CO)CO)CC5)cc4)no3)c2cc1F` [A228, 2-[4-(4-{5-[5-fluoro-6-(2-methoxyethoxy)-1H-indazol-3-yl]-1,2-oxazol-3-yl}benzoyl)piperazin-1-yl]propane-1,3-diol] are 570 nM and 470 nM.
In the same order, the values of `CCOc1cc2[nH]nc(-c3cc(-c4ccc(C(=O)N5CCN(C6COC6)CC5)cc4)no3)c2cc1F` [A229, 6-ethoxy-5-fluoro-3-(3-{4-[4-(oxetan-3-yl)piperazine-1-carbonyl]phenyl}-1,2-oxazol-5-yl)-1H-indazole] are 47 nM and 1100 nM.
As for `COCCOc1cc2[nH]nc(-c3cc(-c4ccc(C5CCNCC5(C)C)cc4)no3)c2cc1F` (stereo not drawn) [A230, 3-{3-[4-(3,3-dimethyl-piperidin-4-yl)-phenyl]-isoxazol-5-yl}-5-fluoro-6-(2-methoxy-ethoxy)-1H-indazole], the IC50 on c-Kit(V654A) (Table 1, 200 μM ATP) was 0.4 nM; in test [1] (setting [2]) it was 110 nM.
In the case of `COCCOc1cc2[nH]nc(-c3cc(-c4ccc(C5CCN(C)CC5(C)C)cc4)no3)c2cc1F` (stereo not drawn) [A231, 5-fluoro-6-(2-methoxy-ethoxy)-3-{3-[4-(1,3,3-trimethyl-piperidin-4-yl)-phenyl]-isoxazol-5-yl}-1H-indazole], the IC50 against c-Kit(V654A) (Table 1, 200 μM ATP) amounted to 0.61 nM; in test [1] (setting [2]), 52 nM.
In the same order, the values of `[2H]C1([2H])NC([2H])([2H])C([2H])([2H])N(C(=O)c2ccc(-c3cc(-c4n[nH]c5cc(OCCOC)c(F)cc45)on3)cc2)C1([2H])[2H]` [A232, 5-fluoro-6-(2-methoxyethoxy)-3-(3-{4-[(2,2,3,3,5,5,6,6-^2H8)piperazine-1-carbonyl]phenyl}-1,2-oxazol-5-yl)-1H-indazole hydrochloride] are 0.09 nM and 100 nM.
In the same order, the values of `[2H]C1([2H])N(C(=O)c2ccc(-c3cc(-c4n[nH]c5cc(OCCOC)c(F)cc45)on3)cc2)C([2H])([2H])C([2H])([2H])N(C2COC2)C1([2H])[2H]` [A233, 5-fluoro-6-(2-methoxyethoxy)-3-(3-{4-[4-(oxetan-3-yl)(2,2,3,3,5,5,6,6-^2H8)piperazine-1-carbonyl]phenyl}-1,2-oxazol-5-yl)-1H-indazole] are 1 nM and 76 nM.
Consider `[2H]C1([2H])N(C(=O)c2ccc(-c3cc(-c4n[nH]c5cc(OCCO)c(F)cc45)on3)cc2)C([2H])([2H])C([2H])([2H])N(C2COC2)C1([2H])[2H]` [A234, 2-{[5-fluoro-3-(3-{4-[4-(oxetan-3-yl)(2,2,3,3,5,5,6,6-^2H8)piperazine-1-carbonyl]phenyl}-1,2-oxazol-5-yl)-1H-indazol-6-yl]oxy}ethan-1-ol], for which the IC50 at c-Kit(V654A) (Table 1, 200 μM ATP) worked out at 0.9 nM; in test [1] (setting [2]), 170 nM.
`COCCOc1cc2[nH]nc(-c3cc(-c4ccc(C(=O)N5CCOC[C@H]5C)cc4)no3)c2cc1F` [compound 114]: the IC50 against c-Kit(V654A) (setting [3]) turned out to be 0.91 nM; in test [1] (setting [3]), 56 nM.
In the case of `COCCOc1cc2[nH]nc(-c3cc(-c4ccc(C(=O)N5CCC[C@H]5CO)cc4)no3)c2cc1F` [drawing 57, reference compound], the IC50 at c-Kit(V654A) (setting [4]) came to 8.5 nM; in test [1] (setting [4]), 910 nM.
In the same order, the values of `COCCOc1cc2[nH]nc(-c3cn(-c4ccc(C(=O)N5CCOC[C@@H]5C)cc4)nn3)c2cc1F` [reference compound] are 6.9 nM and 230 nM.
